Measurements published in patent publication US20170007561A1, “CONTEMPORANEOUS, HETEROGENEOUSLY-ORIENTED, MULTI-TARGETED THERAPEUTIC MODIFICATION AND/OR MODULATION OF DISEASE BY ADMINISTRATION OF SULFUR-CONTAINING, AMINO ACID-SPECIFIC SMALL MOLECULES” (BioNumerik Pharmaceuticals, Inc., priority 2014, published 2017).
Residue numbers refer to the chain shown, from its start. Entries after “also recorded” stand apart in the source; their conditions may differ.

Experiments:
[1] = target: human peroxiredoxin 4 (PRX4) (Homo sapiens, UniProt Q13162); experiment: X-ray crystallography and Mass Spectrometry of Prx 4 with Tavocept-derived mesna; conditions: 40 mM Tavocept; MS and X-ray
[2] = target: T1, Trx (E13K, D16K, E95K, E103K) (Homo sapiens, UniProt P10599, D16K/E103K/E13K/E95K); experiment: X-ray crystallography of Tavocept-derived mesna adduct on Trx; type: binding; conditions: Tavocept 40 mM
T1 construct: 6xHis with TEV site (N, cleaved yes); made in house; host or cells: E. coli BL21(DE3)
T1 sequence (P10599 1-105 E13K/D16K/E95K/E103K): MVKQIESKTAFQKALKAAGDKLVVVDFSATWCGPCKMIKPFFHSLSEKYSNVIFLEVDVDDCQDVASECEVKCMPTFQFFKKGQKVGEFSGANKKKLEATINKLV
Experimental: Adduct was prepared as described above with some modifications designed to increase the likelihood of success in crystallization of the protein. […] This reaction was incubated for 1 hour at 30° C. followed by overnight incubation at 4° C. […] Aliquots of this solution were analyzed by ESI LC-MS to confirm the presence of adduct(s) prior to initiation of crystallization experiments.
These initial broad screens produced crystals under a wide range of conditions (data not shown) and the screens used included: (i) PEGION, CRYSTALS HT, and PEGRX (Hampton Research) and (ii) JCSG and BASIC (JENA Biosciences). Multiple rounds of optimization were completed and included fine screens, varying the protein concentration and varying the protein to reservoir ratios to obtain diffraction quality crystals. In the Trx pH 9.0/8.5 structure (adduct formed at pH 9.0, crystals grown at pH 8.5), the best crystals were obtained in 20% ethanol, 0.1 M Tris (at 60 mg/mL Trx protein) and diffracted to 2.5 Å (C2 space group). In Trx pH 9.0/7.0 (adduct formed at pH 9.0, crystals grown at pH 7.0), the best crystals were obtained in 20% PEG3350, 0.2 M KCl (60 mg/mL Trx protein) and diffracted to 2.8 Å (C2 space group). In Trx pH 7.0/7.0 (adduct formed at pH 7.0, crystals grown at pH 7.0), the best crystals were obtained in 28% PEG3350, 0.2M KCl (160 mg/mL Trx protein) and diffracted to 1.85 Å resolution (P21 space group).
The solution obtained was consistent with four molecules in the crystal asymmetric unit. […] Molecules C and D were substantially rebuilt and the Tavocept-derived mesna adduct added after protein rebuilding was complete. The structure solution was supported by contiguous electron density for the entire chain trace of each molecule, landmark side chain density features matching the amino acid sequence including cysteines, absence of phi-psi violations, and final R/Rfree values in the normal range. […] For the Trx pH 9.0/8.5 structure, residual density observed near Cys69 of molecule A was modeled as a Tavocept-derived mesna adduct in a dual conformation. […]

[3] = system: bovine brain microtubule protein (α-/β-tubulin); experiment: Electron microscopy of microtubule polymerization reactions; type: biochemical; conditions: presence and absence of paclitaxel
Experimental: (1 mM/1 mM/6 μM (v/v/v)). Electron micrograph samples were prepared by gently mixing samples of reactions with an equal volume of 50% sucrose in buffer P (0.1 M PIPES, 1 mM EGTA, pH 6.5) and mounting on carbon-coated grids (400 mesh formvar/carbon, Electron Microscopy Sciences). Grids were washed with cytochrome c (1%) and water and stained with uranyl acetate (1%). Electron microscopy was performed using a Philips 208S electron microscope (Philips Instruments) at an accelerating voltage of 60 kV. Micrographs were taken at 36,000× and 7,000× magnifications.

[4] = target: T2, TrxR/Trx system (Homo sapiens, UniProt P10599); experiment: TrxR/Trx NADPH oxidation assay; type: biochemical
T2 construct: purchased Sigma (Trx); American Diagnostica (bovine TrxR)
T2 sequence (P10599 1-105): T1 sequence (P10599 1-105 E13K/D16K/E95K/E103K) with K13E, K16D, K95E, K103E
Excerpt: (Note: error bars are small and may be obscured by the symbols). […] (Note: error bars were omitted but assays were run in quadruplicate with typical errors of 5-8% between individual replicates). […] Panel D: Initial velocity reaction rates corresponding to progress curves shown in Panel C. With time, Trx-mesna and Trx-GSH are converted back to apo-Trx by Trx reductase (see also, FIG. 69, Panel E).

[5] = target: RNR subunit 1 (Homo sapiens, UniProt P23921); experiment: Whole protein Mass Spectroscopy of RNR1; type: binding
Excerpt: RNR1 contains a total of sixteen (16) cysteine residues and at least five (5) of these cysteine residues are required for catalysis, including: Cys218, Cys429, Cys444, Cys787, and Cys790. It is hypothesized that the Tavocept-derived mesna adducts identified on the RNR1 protein using whole protein Mass Spectroscopy (see, FIG. 49) may alter or modulate RNR activity.

human peroxiredoxin 4 (PRX4), sequence (Q13162 79-271 limits assumed): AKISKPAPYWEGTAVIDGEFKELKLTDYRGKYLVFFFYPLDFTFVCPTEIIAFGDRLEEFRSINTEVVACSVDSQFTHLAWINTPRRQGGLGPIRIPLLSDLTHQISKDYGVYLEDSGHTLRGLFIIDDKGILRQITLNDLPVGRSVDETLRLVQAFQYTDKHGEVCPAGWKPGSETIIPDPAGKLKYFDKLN
RNR subunit 1, sequence (P23921 whole entry): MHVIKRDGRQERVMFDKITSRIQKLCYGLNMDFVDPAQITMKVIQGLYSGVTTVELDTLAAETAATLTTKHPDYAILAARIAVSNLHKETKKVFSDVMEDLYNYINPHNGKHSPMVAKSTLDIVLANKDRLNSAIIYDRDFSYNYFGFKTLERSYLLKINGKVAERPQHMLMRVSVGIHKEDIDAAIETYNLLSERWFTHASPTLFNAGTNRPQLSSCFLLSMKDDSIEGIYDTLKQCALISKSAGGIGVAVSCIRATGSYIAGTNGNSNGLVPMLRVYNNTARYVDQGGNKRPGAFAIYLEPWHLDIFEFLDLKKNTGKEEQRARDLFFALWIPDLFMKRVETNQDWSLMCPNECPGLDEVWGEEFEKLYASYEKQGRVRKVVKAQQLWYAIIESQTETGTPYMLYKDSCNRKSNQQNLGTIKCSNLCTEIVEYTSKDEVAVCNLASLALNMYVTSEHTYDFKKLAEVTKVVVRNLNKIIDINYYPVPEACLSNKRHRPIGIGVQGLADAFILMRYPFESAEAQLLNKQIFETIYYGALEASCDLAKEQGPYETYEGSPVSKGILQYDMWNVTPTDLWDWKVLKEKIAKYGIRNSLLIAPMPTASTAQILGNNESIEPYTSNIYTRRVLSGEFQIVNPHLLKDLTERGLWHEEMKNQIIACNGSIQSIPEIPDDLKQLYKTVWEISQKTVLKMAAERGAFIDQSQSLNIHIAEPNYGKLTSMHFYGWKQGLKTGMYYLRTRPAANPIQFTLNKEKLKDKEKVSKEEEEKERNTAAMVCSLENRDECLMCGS

## O=S(=O)([O-])CCSSCCS(=O)(=O)[O-].[Na+].[Na+] [Tavocept, disodium 2,2′-dithio-bis-ethane sulfonate]
[1]
  Prx 4 cysteine residues carrying Tavocept-derived mesna moiety: Cys124; also recorded: cysteine 124 (and possibly cysteine 245)
[2]; Trx pH 7.0/7.0 structure
  Mesna adduct site on Trx by X-ray: clearly visible on Cys69 in both molecules A and B
[2]; Trx pH 9.0/7.0 structure
  Mesna adduct site on Trx by X-ray: clearly visible on both Cys69 and Cys62 in both molecules A and B
[2]; Trx pH 9.0/8.5 structure
  Mesna adduct site on Trx by X-ray: clearly visible on Cys69 in both molecules A and B
[3]; Tavocept preincubated 20 minutes, qualitative
  abundance of microtubules on EM grids: reduction in the abundance of microtubules
[3]; Tavocept
  microtubule morphology: no effects on overall gross microtubule morphology
[4]
  mode of action on Trx: alternative substrate inhibitor
[4]; increasing concentrations of test substance
  NADPH oxidation by TrxR and Trx: increases
[5]
  number of Tavocept-derived mesna adducts on cysteine residues within RNR1: ≤ 8
